Laboratory results taken from patent publication US8556817B2, “Non-invasive methods for determining the cardiovascular status of an individual” (priority 2005, dated 2013).
Marks after values point to notes of the source that are not given here.

Tests used:
[1] = Carotid artery wall layer thickness by non-invasive high-frequency ultrasound, postmenopausal estrogen users vs age-matched nonusers; type: in vivo, women
Experimental: Any artery within the focus depth of the selected measuring equipment that can give information of the separate thicknesses of the artery intima layer and optionally the artery media layer may be used. In one embodiment, the thickness of the artery intima layer and optionally the artery media layer is measured in a superficial artery. Examples of superficial arteries include, but are not limited to, carotid, femoral, radialis, cubital, temporal, popliteal, or dorsalis pedis arteries. Depending on the artery which is selected for measurement, one skilled in the art will appreciate the various non-invasive locations on the individual in which the artery layer thickness may be measured. In one embodiment, the artery is a carotid artery and is examined in front of the sternocleidomastoid muscle, with the individual in the sitting position.
Before beginning the ultrasound imaging, individuals rest quietly for at least 15 minutes. Carotid total wall thickness and the thickness of the individual artery layers are assessed noninvasively using high-resolution ultrasonographic equipment (Osteoson® Minhorst GmbH, Meudt, Germany), fitted with a broad-banded probe with 25 MHz center frequency. The method is validated for the estimation of total artery wall thickness and media layer thickness in non-atherosclerotic superficial arteries in pigs. Briefly, the scan converter enables the image to be frozen at a selected scan-time (2 sec) and the unit permits two-dimensional data acquisition, presenting the results as scans A and B. About 128 lines of echo data are detected as an A-echo signal, sampled by an eight-bit analog-to-digital converter, converted by scanning to a rectangular format and viewed as B-mode images on a 32-colour scale monitor. Image resolution as defined by the product manual is approximately 0.07 mm axially along the ultrasonographic beam and the depth of focus is in the range of 13.5 to 14.5 mm in front of the tip of the probe. The system recognizes objects of about 0.015 mm in size, and the software-driven cursors permit a minimal digital display of 0.02 mm.
The left common carotid artery (LCCA) is examined at the point of the strongest pulse, in front of the sternocleidomastoid muscle, with the individuals sitting in an upright position and looking straight ahead. The three-layer image show the pulsating artery near wall and the artery lumen. Ten B scans (point estimates) are carried out and measurements of the thickness of the whole arterial wall and its layers are performed off-line. Means of the ten measurements are calculated and used in the analysis. The total thickness of the carotid wall is measured from the leading edge of the adventitia to the far edge of the intima. Measurements of the adventitia and intima are made using only the brightest echoes from leading edge to far edge, and the thickness of the media layer is measured as the distance between the two brightest echoes. The coefficient of variation (CV %), calculated from double estimates (based on the mean of 5 measurements each) in 20 subjects, is about 2.4% for total carotid wall thickness, about 4.2% for media thickness and about 8% for intima thickness. The values for artery wall layer given in this study are mean values based on 10 or more measurements. All ultrasonographic assessments are performed by the same investigator, who is blinded to the clinical data of the study subjects.

[2] = Femoral artery wall layer thickness by non-invasive high-frequency ultrasound, postmenopausal estrogen users vs age-matched nonusers; type: in vivo, women
[3] = estrogen users vs age-matched nonusers
[4] = estrogen users vs age-matched nonusers, pair-wise
[5] = postmenopausal estrogen users (n = 17), mean ± SD

Estrogen
Intima thickness, % difference [1, 3]: −25%
Intima/Media ratio, % difference [1, 3]: −54%
Media thickness, % difference [1, 3]: +74%
Thickness of Intima + Media, % difference [1, 3]: +43%
Total wall thickness, % difference [1, 3]: +35%
Intima thickness, Mean difference ± SD [1, 4]: −0.033 ± 0.04 mm
Intima/Media ratio, Mean difference ± SD [1, 4]: −0.25 ± 0.15
Media thickness, Mean difference ± SD [1, 4]: 0.26 ± 0.22 mm
Thickness of Intima + Media, Mean difference ± SD [1, 4]: 0.22 ± 0.23 mm
Total wall thickness, Mean difference ± SD [1, 4]: 0.23 ± 0.23 mm
Intima thickness [1, 5]: 0.12 ± 0.02 mm
Intima/Media ratio [1, 5]: 0.21 ± 0.0629^a
Media thickness [1, 5]: 0.61 ± 0.19 mm
Thickness of Intima + Media [1, 5]: 0.73 ± 0.19 mm
Total wall thickness [1, 5]: 0.84 ± 0.19 mm
Intima thickness, % difference [2, 3]: −23%
Intima/Media ratio, % difference [2, 3]: −50%
Media thickness, % difference [2, 3]: +51%
Thickness of Intima + Media, % difference [2, 3]: +38%
Total wall thickness, % difference [2, 3]: +25%
Intima thickness, Mean difference ± SD [2, 4]: −0.030 ± 0.04 mm
Intima/Media ratio, Mean difference ± SD [2, 4]: −0.14 ± 0.13
Media thickness, Mean difference ± SD [2, 4]: 0.27 ± 0.30 mm
Thickness of Intima + Media, Mean difference ± SD [2, 4]: 0.24 ± 0.33 mm
Total wall thickness, Mean difference ± SD [2, 4]: 0.18 ± 0.40 mm
Intima thickness [2, 5]: 0.095 ± 0.02 mm
Intima/Media ratio [2, 5]: 0.14 ± 0.06^0.055
Media thickness [2, 5]: 0.77 ± 0.29^a mm
Thickness of Intima + Media [2, 5]: 0.87 ± 0.30^a mm
Total wall thickness [2, 5]: 0.91 ± 0.37^b mm
